According to patent publication US9067871B2, “Aminotetraline derivatives, pharmaceutical compositions containing them, and their use in therapy” (ABBVIE DEUTSCHLAND GMBH & CO KG, priority 2009, dated 2015):
Where a name gives a salt, the structure may show the parent alone.

Target: human GlyT1c transporter (Homo sapiens (Human), UniProt P48067)
Experiment: Radioligand binding assay using recombinant CHO cell membranes expressing human GlyT1
Settings: human GlyT1c-expressing CHO cell membranes; read-out: radioligand binding Kiapp
Source text: 2. Radioligand binding assays using recombinant CHO cell membranes expressing human GlyT1: […]

Sequence of human GlyT1c transporter (P48067 whole entry): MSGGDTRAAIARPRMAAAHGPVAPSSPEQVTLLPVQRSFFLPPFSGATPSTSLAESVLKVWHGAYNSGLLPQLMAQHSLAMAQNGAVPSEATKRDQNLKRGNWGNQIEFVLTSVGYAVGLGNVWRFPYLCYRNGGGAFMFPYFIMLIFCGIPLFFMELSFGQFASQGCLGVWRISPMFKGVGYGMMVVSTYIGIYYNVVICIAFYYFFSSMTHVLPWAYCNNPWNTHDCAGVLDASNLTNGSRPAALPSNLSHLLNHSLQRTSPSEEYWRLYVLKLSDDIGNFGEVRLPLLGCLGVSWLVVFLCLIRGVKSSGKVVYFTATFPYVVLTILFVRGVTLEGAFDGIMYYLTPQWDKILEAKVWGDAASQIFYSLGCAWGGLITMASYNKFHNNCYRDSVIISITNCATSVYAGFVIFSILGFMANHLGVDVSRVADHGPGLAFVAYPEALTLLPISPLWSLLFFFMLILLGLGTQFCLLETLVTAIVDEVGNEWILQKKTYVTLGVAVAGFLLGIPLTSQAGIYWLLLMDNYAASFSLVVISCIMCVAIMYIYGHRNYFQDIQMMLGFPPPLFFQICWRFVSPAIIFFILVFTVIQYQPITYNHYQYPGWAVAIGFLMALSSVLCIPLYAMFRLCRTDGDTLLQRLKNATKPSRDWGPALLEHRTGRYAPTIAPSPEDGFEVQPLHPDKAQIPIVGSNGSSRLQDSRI

Row | Structure (SMILES) | Ki [nM]
1 | CCCS(=O)(=O)NCCCc1ccc2c(c1)C(Cc1cccc(F)c1)C(NCC)CC2 (centres unmarked) [Example 219, Propane-1-sulfonic acid {3-[7-ethylamino-8-(3-fluoro-benzyl)-5,6,7,8-tetrahydronaphthalen-2-yl]-propyl}-amide hydrochloride] | ≤ 100
2 | CCCS(=O)(=O)NCCCc1ccc2c(c1)C(Cc1ccc(F)cc1)C(NCC)CC2 (centres unmarked) [Example 220, N-{3-[7-(Ethylamino)-8-(4-fluorobenzyl)-5,6,7,8-tetrahydronaphthalen-2-yl]propyl}propane-1-sulfonamide hydrochloride] | ≤ 1000
3 | CCNC1CCc2ccc(CCCNS(=O)(=O)CC3CC3)cc2C1Cc1cccc(F)c1 (centres unmarked) [Example 221, C-Cyclopropyl-N-{3-[7-ethylamino-8-(3-fluoro-benzyl)-5,6,7,8-tetrahydro-naphthalen-2-yl]-propyl}-methanesulfonamide hydrochloride] | ≤ 100
4 | CCCS(=O)(=O)NCCCc1ccc2c(c1)C(Cc1ccccc1Cl)C(NCC)CC2 (centres unmarked) [Example 222, Propane-1-sulfonic acid {3-[8-(2-chloro-benzyl)-7-ethylamino-5,6,7,8-tetrahydronaphthalen-2-yl]-propyl}-amide hydrochloride] | ≤ 1000
5 | CCCS(=O)(=O)NCCCc1ccc2c(c1)C(Cc1ccccc1)C(NCC)CC2 (centres unmarked) [Example 223, N-{3-[8-Benzyl-7-(ethylamino)-5,6,7,8-tetrahydronaphthalen-2-yl]propyl}propane-1-sulfonamide hydrochloride] | ≤ 100
6 | CCNC1CCc2ccc(CCCNS(=O)(=O)CC3CC3)cc2C1Cc1ccccc1 (centres unmarked) [Example 224, N-{3-[8-Benzyl-7-(ethylamino)-5,6,7,8-tetrahydronaphthalen-2-yl]propyl}-1-cyclopropylmethanesulfonamide hydrochloride] | ≤ 100
7 | CCCS(=O)(=O)NCCCc1ccc2c(c1)C(Cc1ccc(F)c(F)c1)C(NCC)CC2 (centres unmarked) [Example 225, N-{3-[8-(3,4-Difluorobenzyl)-7-(ethylamino)-5,6,7,8-tetrahydronaphthalen-2-yl]propyl}propane-1-sulfonamide trifluoroacetate] | ≤ 100
8 | CCNC1CCc2ccc(CCCNS(=O)(=O)CC3CC3)cc2C1Cc1ccc(F)c(F)c1 (centres unmarked) [Example 226, 1-Cyclopropyl-N-{3-[8-(3,4-difluorobenzyl)-7-(ethylamino)-5,6,7,8-tetrahydronaphthalen-2-yl]propyl}methanesulfonamide trifluoroacetate] | ≤ 100
9 | CCCS(=O)(=O)N(C)CCCc1ccc2c(c1)C(Cc1cccc(F)c1)C(N)CC2 (centres unmarked) [Example 227, N-{3-[7-Amino-8-(3-fluorobenzyl)-5,6,7,8-tetrahydronaphthalen-2-yl]propyl}-N-methylpropane-1-sulfonamide hydrochloride] | ≤ 100
10 | CN(CCCc1ccc2c(c1)C(Cc1ccccc1Cl)C(N)CC2)S(=O)(=O)CC1CC1 (centres unmarked) [Example 228, N-{3-[7-Amino-8-(2-chloro-benzyl)-5,6,7,8-tetrahydro-naphthalen-2-yl]-propyl}-C-cyclopropyl-N-methyl-methanesulfonamide hydrochloride] | ≤ 100
11 | CN(CCCc1ccc2c(c1)C(Cc1cccc(F)c1)C(N)CC2)S(=O)(=O)CC1CC1 (centres unmarked) [Example 230, N-{3-[7-Amino-8-(3-fluorobenzyl)-5,6,7,8-tetrahydronaphthalen-2-yl]propyl}-1-cyclopropylN-methylmethanesulfonamide hydrochloride] | ≤ 10
12 | CCCS(=O)(=O)N(C)CCCc1ccc2c(c1)C(Cc1ccc(F)cc1)C(N)CC2 (centres unmarked) [Example 232, N-{3-[7-Amino-8-(4-fluorobenzyl)-5,6,7,8-tetrahydronaphthalen-2-yl]propyl}-N-methylpropane-1-sulfonamide hydrochloride] | ≤ 100
13 | CN(CCCc1ccc2c(c1)C(Cc1ccc(Cl)cc1)C(N)CC2)S(=O)(=O)CC1CC1 (centres unmarked) [Example 233, N-{3-[7-Amino-8-(4-chlorobenzyl)-5,6,7,8-tetrahydronaphthalen-2-yl]propyl}-1-cyclopropylN-methylmethanesulfonamide hydrochloride] | ≤ 100
14 | CCCS(=O)(=O)N(C)CCCc1ccc2c(c1)C(Cc1ccc(Cl)cc1)C(N)CC2 (centres unmarked) [Example 234, N-{3-[7-Amino-8-(4-chlorobenzyl)-5,6,7,8-tetrahydronaphthalen-2-yl]propyl}-N-methylpropane-1-sulfonamide hydrochloride] | ≤ 100
15 | NC1CCc2ccc(OCCNS(=O)(=O)CC3CC3)cc2C1Cc1cccc(F)c1 (centres unmarked) [Example 235, N-(2-{[7-Amino-8-(3-fluorobenzyl)-5,6,7,8-tetrahydronaphthalen-2-yl]oxy}ethyl)-1-cyclopropylmethanesulfonamide hydrochloride] | ≤ 10
16 | CCOC(=O)NC1CCc2ccc(OCCNS(=O)(=O)c3ccn(C)c3)cc2C1Cc1cc(F)cc(F)c1 (centres unmarked) [Example 236, Ethyl[1-(3,5-difluorobenzyl)-7-(2-{[(1-methyl-1H-pyrrol-3-yl)sulfonyl]amino}ethoxy)-1,2,3,4-tetrahydronaphthalen-2-yl]carbamate] | ≤ 1000
17 | CNC1CCc2ccc(OCCNS(=O)(=O)CC3CC3)cc2C1Cc1cc(F)cc(F)c1 (centres unmarked) [Example 243, 1-Cyclopropyl-N-(2-{[8-(3,5-difluorobenzyl)-7-(methylamino)-5,6,7,8-tetrahydronaphthalen-2-yl]oxy}ethylmethanesulfonamide hydrochloride] | ≤ 10
18 | CNC1CCc2ccc(OCCNS(=O)(=O)c3ccn(C)c3)cc2C1Cc1cc(F)cc(F)c1 (centres unmarked) [Example 246, N-(2-{[8-(3,5-Difluorobenzyl)-7-(methylamino)-5,6,7,8-tetrahydronaphthalen-2-yl]oxy}ethyl)-1-methyl-1H-pyrrole-3-sulfonamide hydrochloride] | ≤ 10
19 | CNC1CCc2ccc(OCCNS(=O)(=O)CC3CC3)cc2C1Cc1cccc(F)c1 (centres unmarked) [Example 247, 1-Cyclopropyl-N-(2-{[8-(3-fluorobenzyl)-7-(methylamino)-5,6,7,8-tetrahydronaphthalen-2-yl]oxy}ethyl)methanesulfonamide hydrochloride] | ≤ 10
20 | Cn1cnc(S(=O)(=O)NCc2ccc3c(c2)C(Cc2ccccc2)C(N2CCC2)CC3)c1 (centres unmarked) [Example 248, N-{[7-(Azetidin-1-yl)-8-benzyl-5,6,7,8-tetrahydronaphthalen-2-yl]methyl}-1-methyl-1H-imidazole-4-sulfonamide] | ≤ 10
21 | Cn1cc(S(=O)(=O)NCc2ccc3c(c2)C(Cc2ccccc2)C(N2CCC2)CC3)cn1 (centres unmarked) [Example 250, N-{[7-(Azetidin-1-yl)-8-benzyl-5,6,7,8-tetrahydronaphthalen-2-yl]methyl}-1-methyl-1H-pyrazole-4-sulfonamide] | ≤ 10
22 | Cn1ccc(S(=O)(=O)NCc2ccc3c(c2)C(Cc2ccccc2)C(N2CCC2)CC3)c1 (centres unmarked) [Example 251, N-{[7-(Azetidin-1-yl)-8-benzyl-5,6,7,8-tetrahydronaphthalen-2-yl]methyl}-1-methyl-1H-pyrrole-3-sulfonamide trifluoroacetate] | ≤ 100
23 | Cn1cnc(S(=O)(=O)NCc2ccc3c(c2)C(Cc2cccc(F)c2)C(N2CCC2)CC3)c1 (centres unmarked) [Example 256, N-{[7-(Azetidin-1-yl)-8-(3-fluorobenzyl)-5,6,7,8-tetrahydronaphthalen-2-yl]methyl}-1-methyl-1H-imidazole-4-sulfonamide hydrochloride] | ≤ 100
